Data: PubChem BioAssay (NCI)
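Interpolation was linear, between the two tested concentrations surrounding the appropriate level; five concentrations were tested over 48 hours in 96-well plates. The concentration for full growth arrest is given as TGI.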

How the values were obtained:
Assay in all cases: DTP human tumour cell line panel, 48 h
[1] = tested on: CAKI-1 renal
[2] = tested on: IGROV1 ovarian
[3] = tested on: OVCAR-3 ovarian
[4] = tested on: HCT-15 colon
[5] = tested on: EKVX NSCLC
[6] = tested on: NCI-H23 lung
[7] = tested on: 786-0 renal
[8] = tested on: CCRF-CEM leukemia
[9] = tested on: A549 NSCLC
[10] = tested on: SN12C renal
[11] = tested on: SR leukemia
[12] = tested on: DU-145 prostate
[13] = tested on: MCF7 breast
[14] = tested on: U251 CNS
[15] = tested on: LOX IMVI melanoma
[16] = tested on: RPMI-8226 leukemia
[17] = tested on: HCC-2998 colon
[18] = tested on: MDA-MB-231 breast
[19] = tested on: K-562 leukemia
[20] = tested on: COLO 205 colon

| Structure (SMILES) | TGI [1] | TGI [2] | TGI [3] | TGI [4] | TGI [5] | TGI [6] | TGI [7] | TGI [8] | TGI [9] | TGI [10] | TGI [11] | TGI [12] | TGI [13] | TGI [14] | TGI [15] | TGI [16] | TGI [17] | TGI [18] | TGI [19] | TGI [20] |
| --- | --- | --- | --- | --- | --- | --- | --- | --- | --- | --- | --- | --- | --- | --- | --- | --- | --- | --- | --- | --- |
| COc1ccc2c(c1)/C(=C\c1c(Cl)nc3sc(C)cn13)C(=O)N2 | 17.1 µM | 16.7 µM | 8.83 µM | 22.4 µM | 21.2 µM | 18.9 µM | 15.1 µM | 6.15 µM | 17 µM | 21.9 µM | 15.6 µM | 18.2 µM | 14.2 µM | 11.6 µM | 18.1 µM | 13.8 µM | 18.3 µM | 17.7 µM | 9.56 µM | 9.45 µM |
| O=C(O)c1ccccc1CC1Cc2ccccc2C1=O (stereo not given) | > 100 µM | > 100 µM | > 100 µM | > 100 µM | > 100 µM | > 100 µM | > 100 µM | > 100 µM | > 100 µM | > 100 µM | > 100 µM | > 100 µM | > 100 µM | > 100 µM | > 100 µM | > 100 µM | > 100 µM | > 100 µM | > 100 µM | > 100 µM |
| N=C(N)SCc1ccc2c(c1)Sc1ccccc1O2 | 19.7 µM | 11.9 µM | 16.9 µM | 21.7 µM | 27 µM | 21.5 µM | 24.6 µM | > 54.1 µM | 23 µM | 46.9 µM | > 31.6 µM | 28.7 µM | 13.5 µM | > 71.4 µM | 60.4 µM | > 36.8 µM | 6.89 µM | 45.2 µM | > 100 µM | 17.8 µM |
| CCOC(=O)C1=C(C)C2C=C(c3cccs3)CC(c3ccc(Cl)cc3)=C2OC1=O (stereo not given) | > 100 µM | > 100 µM | > 100 µM | 56.5 µM | > 100 µM | > 100 µM | 67.1 µM | 60.1 µM | > 100 µM | > 100 µM | 50 µM | > 100 µM | > 100 µM | > 100 µM | 37.9 µM | 38 µM | 77.3 µM | > 100 µM | 34.4 µM | > 100 µM |
| CS(=O)c1ncc2c(n1)-c1ccccc1OC2 (stereo not given) | > 100 µM | > 100 µM | > 100 µM | > 100 µM | > 100 µM | > 100 µM | > 100 µM | > 100 µM | > 100 µM | > 100 µM | > 100 µM | > 100 µM | > 100 µM | > 100 µM | > 100 µM | > 100 µM | > 100 µM | > 100 µM | > 100 µM | > 100 µM |
| CCC1(CC)C(=O)NN(C(=O)c2ccccc2)C1=O | > 100 µM | > 100 µM | > 100 µM | > 100 µM | > 100 µM | > 100 µM | > 100 µM | > 100 µM | > 100 µM | > 100 µM | > 100 µM | > 100 µM | > 100 µM | > 100 µM | > 100 µM | > 100 µM | > 100 µM | > 100 µM | > 100 µM | > 100 µM |
